Test results taken from article PMC5691136, “The role of CXCR3/LRP1 cross-talk in the invasion of primary brain tumors” (Nature Communications, 2017).

Target: T1, CXCR3-A (Homo sapiens, UniProt P49682)
T1 construct: full-length human CXCR3-A (isoform A) in membrane fragments of transfected U87 and HEK-293 cells
T1 sequence (P49682 1-368): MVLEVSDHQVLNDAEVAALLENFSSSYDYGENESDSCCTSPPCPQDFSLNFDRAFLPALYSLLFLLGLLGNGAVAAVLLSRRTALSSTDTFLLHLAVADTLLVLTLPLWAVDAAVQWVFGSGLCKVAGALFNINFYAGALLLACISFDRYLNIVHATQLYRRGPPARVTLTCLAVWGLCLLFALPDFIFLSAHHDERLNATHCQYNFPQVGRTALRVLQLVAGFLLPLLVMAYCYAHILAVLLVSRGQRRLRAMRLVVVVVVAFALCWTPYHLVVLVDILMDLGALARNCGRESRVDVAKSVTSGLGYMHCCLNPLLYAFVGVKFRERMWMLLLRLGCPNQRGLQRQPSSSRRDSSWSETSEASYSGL
Experiment: plasmon waveguide resonance on captured cell membrane fragments; no spectral change with U87-CTRL fragments
Format: binding

A Kd of 36 ± 9 nM was found for `NC(N)=NCCC[C@H](NC(=O)[C@@H]1Cc2ccccc2CN1C(=O)CCC(=O)c1ccccc1)C(=O)NCC1CCCCC1` [PS372424] in this work.
